The source of these data is EP1488698A1, “Compositions for descreasing intracellular inositol trisphosphate concentration and uses thereof” (priority 1995, dated 1997).

In series [1] the test system is PC12 cells. Briefly: Phosphoinositide hydrolysis assay (InsP3 production) in PC12 cells. Type of series: cell-based, rat. Particulars: for sensitivity of PC12 cells to bradykinin: even at relatively moderate levels. From the text: PC12 cells, from a rat adrenal pheochromocytoma cell line, were used as a model of neurons from the peripheral nervous system. These cells were obtained from a common laboratory cell culture stock and grown in plastic culture flasks in Dulbecco's modified Eagle's medium (DMEM) supplemented with 5% heat-inactivated horse serum and 10% heat-inactivated fetal calf serum (PC12 cells are also available from the American Type Culture Collection under the Accession number CRL 1721). The cells were grown at 37°C in 5% CO2 in air until a confluent monolayer formed. The cells were dispersed into 24-well plastic tissue culture plates at a density of 10^5 cells per well and used for the phosphoinositide hydrolysis assays (as described in Example 2).
Receptor-stimulated and basal unstimulated hydrolysis of phosphoinositides was measured by the following procedure. In order to label the cellular phosphoinositides metabolically, the primary cultures of chick cortical neurons (described in Example 1) were incubated overnight with 0.5 ml Dulbecco's modified Eagle's medium containing 1 µCi [^3H]myo-inositol per well. The cells were then washed twice with 1 ml Dulbecco's phosphate-buffered saline (PBS) and 0.5 ml of PBS containing 4.5 g/L glucose was added. Sphingosine, psychosine, lysosulphatide, or lysosphingomyelin, prepared as the hydrochloride salt dissolved in water, were then added to produce the desired extracellular concentration in specific wells, and the 24-well plates were swirled gently on a rotary shaker for 1 hour at 23°C. The cells were then washed twice with 1 ml PBS, and pre-incubated for 15 minutes at 37°C with 0.5 ml PBS containing 10 mM LiCl and the compound to be tested was added. After 30 minutes, the experiment was terminated by adding 1 ml of ice-cold methanol to each well and transferring the material in each well to polypropylene tubes that contained 0.4 ml water and 1 ml chloroform. The tubes were vortexed thoroughly, then centrifuged at 500 x g for 5 minutes to separate the aqueous and chloroform phases. For each sample, a 1.5-ml aliquot of the upper (aqueous) phase was applied to a small column containing BioRad AG1X8 resin (formate form). Free [^3H]inositol and [^3H]glycerophosphoinositol were washed through the column with 5 ml of a solution containing 5 mM sodium borate and 60 mM sodium formate. The total phosphorylated [^3H] inositol fraction was eluted from the column for radiometric scintillation spectrometry analysis with 3 ml 1.0 M ammonium formate/0.1 M formic acid.
In addition, a 0.5 ml aliquot of the lower (chloroform) phase of each sample was analyzed radiometrically by scintillation spectrometry in order to determine the quantity of lipid-bound [^3H]myo-inositol. Estimation of phosphoinositide hydrolysis by phospholipase C is based upon the quantity of [^3H]inositol phosphates produced, and is expressed as the percentage of the latter relative to total free and componential [^3H]inositol (dpm ammonium formate + dpm chloroform fractions).

The subject of series [2] is phospholipase C isoforms beta, delta, and gamma. Briefly: Free phospholipase C activity in solution (kinetics). Type of series: biochemical. To be noted: for KM / diminution in Vmax / increase in calcium ion concentration required for optimal activity: 10 µM lysocerebroside or 5 µM lysosphingomyelin.
Experimental: The effects of sphingosine, lysocerebroside, and lysosphingomyelin on the kinetics of pure, immunologically isolated phospholipase C isoforms beta, delta, and gamma (which are commercially available) was examined. For each isoform, 10 µM sphingosine was added to a reaction medium consisting of 1 µg phospholipase C isoform/ml, Tris-malate buffer (50 mM, pH 7.0) containing 100 µM phosphatidyl inositol bis-phosphate tri-ammonium salt, 0.01 µCi tritium labeled phosphatidyl inositol bis-phosphate, 100 mM NaCl, 10 mM CaCl2, and 5 mM 2-merceptoethanol.
The subject of series [3] is Intact neurons. Briefly: Lysosphingolipid loading of intact neurons (fluorescence tagging). Format: in vitro ADME, chick. To be noted: 10 μmolar exposure. An excerpt: Total lipids were removed from the neuron samples by repeated extraction with chloroform:methanol (2:1, vol:vol). The lysosphingolipids were separated from total neuronal lipid in 90 ± 5 % recovery yield (n = 10) by the stepped chromatographic procedure of Van Veldhoven et al. (Anal. Biochem. 183:177-189, 1989). The recovered lysosphingolipids were stably tagged with NBDZF by the rapid procedure of Nozowa et al. (supra). The fluorescence tagged neuronal lysosphingolipids were separated in parallel with reference standards NBDZF-Sph, NBDZF-Psy, and NBDZF-Lsm on high performance silica gel thin layer chromatography plates with acetonitrile:H2O (10:0.5, vol:vol). The highly fluorescent, well separated bands were scraped from the plate. The fluorescence tagged lysosphingolipids are eluted from the scraped silica gel with methanol:1 N HCl (1:0.02, vol:vol). The fluorescence tagged lysosphingolipid eluates were quantitated against reference standards by fluorescence measurement in a Perkin-Elmer LS-5 Fluorescence Spectrometer.
Sphingolipid content of neurons exposed to sphingosine, lysocerebroside, and lysosphingomyelin was examined as follows. A Petri dish containing approximately 10^7 neurons was incubated with 5 µCi [^3H]myo-Ins in 3 ml DMEM overnight to prelabel the phosphoinositide InsP3 may contain. The neurons were washed with PBS and 3 ml of PBS containing 4.5 g/l glucose was added. Preparations of sphingosine, lysocerebroside, lysosphingomyelin (Sigma Chemical Co., St. Louis, MO) and combinations of each were prepared as the hydrochloride salt dissolved in PBS. The lysosphingolipids were added to the Petri dishes to produce a concentration ranging from 0 - 150 µM. […] Trypsinization removes non-specifically bound lysosphingolipids that may adhere to extracellular plasma membrane protein domains. Non-specific adherence between cationic micelles of lysosphingolipids and the neuronal glycocalyx is avoided by performing the experiments with lysosphingolipid concentrations below the critical micelle concentration. Neurons were analyzed for lysosphingolipid content as described above.
The suspended plasma membrane preparation was apportioned into 250 µl samples, each providing approximately 100 µg membrane protein. Sphingosine, psychosine, and lysosphingomyelin were added to each plasma membrane sample. The samples were held at room temperature for 3 hours, centrifuged at 300,000 X g for 30 minutes, and the supernatant discarded. Samples were analyzed for lysosphingolipid loading (i.e., membrane lysosphingolipid content following exposure to exogenous sphingolipid) by fluorescence tagging. Table 2 provides the results of exposure of plasma membrane samples to 10 µM lysosphingolipids. Values are reported in pmoles lysosphingolipid/mg plasma membrane protein. Values obtained for isolated plasma membrane and intact neurons are compared.

Regarding `CCCCCCCCCCCCC/C=C/[C@@H](O)[C@@H](N)COP(=O)([O-])OCC[N+](C)(C)C` [lysosphingomyelin, sphingosyl phosphorylcholine], in series [1] (PC12 cells, Fig 3), the InsP3 production entry is reported as “strongly inhibit”. Besides, the “sensitivity of PC12 cells to bradykinin” value in series [1] (Fig 3) is listed as “can entirely block”. For the same compound, in series [2], the KM entry is listed as “no change”, the “diminution in Vmax” value is given as 60% ± 10% and the “increase in calcium ion concentration required for optimal activity” value was 5 fold. In series [3], the “lysosphingolipid content, 0 hours of incubation” value is on record as 5±1 pmoles lysosphingolipid/mg plasma membrane protein; the “lysosphingolipid content, 0.5 hours of incubation” value is reported as 8±2 pmoles lysosphingolipid/mg plasma membrane protein; the “lysosphingolipid content, 1.0 hours of incubation” value is 20±5 pmoles lysosphingolipid/mg plasma membrane protein; the “lysosphingolipid content, 2.0 hours of incubation” value is listed as 45±5 pmoles lysosphingolipid/mg plasma membrane protein. Besides, in series [3], the “lysosphingolipid content, 3.0 hours of incubation” value is 55±15 pmoles lysosphingolipid/mg plasma membrane protein.

For the compound `CCCCCCCCCCCCC/C=C/[C@@H](O)[C@@H](N)CO[C@@H]1O[C@H](CO)[C@H](O)[C@H](O)[C@H]1O` [psychosine], the InsP3 production result in series [1] (PC12 cells, Fig 3) is on record as “strongly inhibit”. For the same compound, in series [1] (Rattus norvegicus, PC-12, 0.5 h, read-out: concentration sufficient to reduce a metabotropic response to bradykinin to half maximum), the IC50 is 50 µM. Further, the “sensitivity of PC12 cells to bradykinin” value in series [1] (Fig 3) is listed as “can entirely block”. In addition, in series [2], the KM result is on record as “no change”, the “diminution in Vmax” value is recorded as 60% ± 10% and the “increase in calcium ion concentration required for optimal activity” value was found to be 5 fold. Further, in series [3], the “lysosphingolipid content, 0 hours of incubation” value is 25±5 pmoles lysosphingolipid/mg plasma membrane protein; the “lysosphingolipid content, 0.5 hours of incubation” value was 35±15 pmoles lysosphingolipid/mg plasma membrane protein; the “lysosphingolipid content, 1.0 hours of incubation” value is on record as 45±10 pmoles lysosphingolipid/mg plasma membrane protein; the “lysosphingolipid content, 2.0 hours of incubation” value is reported as 80±5 pmoles lysosphingolipid/mg plasma membrane protein. For the same compound, the “lysosphingolipid content, 3.0 hours of incubation” value in series [3] is 80±5 pmoles lysosphingolipid/mg plasma membrane protein.

With `CCCCCCCCCCCCC/C=C/[C@@H](O)[C@@H](N)CO` [sphingosine], in series [1] (PC12 cells, Fig 3), the “basal, unstimulated level of InsP3 production” value is given as “tonically upregulated”. Moreover, in series [2] (10 µM sphingosine), the “KM for substrate phosphatidylinositol bis-phosphate” value is recorded as “no effect” and the “calcium ion concentration required for optimal activity” value is on record as “a decrease”. Also, the “increase in Vmax” value in series [2] (10 µM sphingosine, each isoform) is recorded as “approximately 2 fold”. In addition, in series [3], the “lysosphingolipid content, 0 hours of incubation” value was 85±15 pmoles lysosphingolipid/mg plasma membrane protein; the “lysosphingolipid content, 0.5 hours of incubation” value is 85±20 pmoles lysosphingolipid/mg plasma membrane protein; the “lysosphingolipid content, 1.0 hours of incubation” value is given as 110±15 pmoles lysosphingolipid/mg plasma membrane protein; the “lysosphingolipid content, 2.0 hours of incubation” value was 105±5 pmoles lysosphingolipid/mg plasma membrane protein. For the same compound, the “lysosphingolipid content, 3.0 hours of incubation” value in series [3] is on record as 115±15 pmoles lysosphingolipid/mg plasma membrane protein.
